In patent publication US20080014187A1, “Compositions and Methods for Treating Hypertension and Inflammation” (priority 2006, published 2008):

Assays:
[1] = case study, patient with hypertension, blood pressure and side effects; format: in vivo, human; settings: 30 mg CoQ10 at 9 AM, patient on 40 mg telmisartan in the evening; reading by 12 PM, from 140/90 at 8 AM
Description: Because of these drug side effects, the patient subsequently dropped the amlodipine and took only a 40 mg daily dose of telmisartan in the evening before retiring. […] On one day with a reading of 140/90 at 8 AM, the patient took 30 mg of CoQ10 at 9 AM and their blood pressure sharply dropped to 103/71 by 12 PM. The patient subsequently began taking 30 mg CoQ10 in the morning and evening along with the evening only dose of 40 mg telmisartan.

[2] = eight human clinical trials; cited from earlier work
serum IL-6 and TNF-alpha = settings: reported in the literature; cited from earlier work

Compound	blood pressure [1]	decrease of mean diastolic blood pressure [2]	decrease of mean systolic blood pressure [2]	serum IL-6 (serum IL-6 and TNF-alpha)	serum TNF-alpha (serum IL-6 and TNF-alpha)
COC1=C(OC)C(=O)C(C/C=C(\C)CC/C=C(\C)CC/C=C(\C)CC/C=C(\C)CC/C=C(\C)CC/C=C(\C)CC/C=C(\C)CC/C=C(\C)CC/C=C(\C)CCC=C(C)C)=C(C)C1=O [CoQ10, Coenzyme Q10]	103/71	10 mm Hg	16 mm Hg	reduces	reduces
CCOC(=O)[C@H](CCc1ccccc1)N[C@@H](C)C(=O)N1Cc2ccccc2C[C@H]1C(=O)O [quinapril]				lower	lower
